Measurements from patent US5082772A, “Process for preparing deacetylcephalosporin C” (priority 1988, dated 1992).
Values joined by “and” are separate entries in the source; they are usually repeats but may differ in a detail not shown here. Equal entries are not always repeated. Where two headings read alike, the source gives them in different places. Values belong to the compound of their own block, whether it stands above or below them.

Key:
Assay type in all cases: biochemical
DAOC synthase [1] = target: T1, DAOC synthase (Streptomyces clavuligerus, UniProt P18548); experiment: DAOC synthase activity assay: effect of metal chelators, sulfhydryl reagents and other inhibitors
Protocol: ^1 Enzymatic reactions were conducted in the presence of […]
FeSO4 and 0.1 mM DTT. The enzyme was incubated with the indicated
inhibitor for 1 min prior to the initiation of the reaction with
(§1) The enzymatic reaction was initiated by addition of penicillin N and was conducted for 15 min at 36° C. The synthase activity was determined by monitoring DAOC formation at 260 nm with HPLC as described by Dotzlaf, J. E., and Yeh, W. K (1987), J. Bacteriol 169, 1611-1618.

DAOC synthase [2] = target: T1, DAOC synthase; experiment: Cofactor and metal ion requirement and stimulation of DAOC synthase activity
Protocol: as §1

purified synthase [3] = target: T2, purified synthase (Streptomyces clavuligerus, UniProt P18548); experiment: Hydroxylase activity (conversion to DAC)
DAOC synthase [4] = target: T1, DAOC synthase; experiment: Substrate specificity of DAOC synthase (HPLC detection); conditions: optimum conditions for converting penicillin N to DAOC; HPLC detectable
[5] = target: T3, recombinantly produced DAOC synthase (Streptomyces clavuligerus, UniProt P18548); experiment: Kinetics of recombinant enzyme (Lineweaver-Burk); conditions: pH 7.0, 50 mM HEPES buffer, 36° C.
T3 construct: made in house; host or cells: Escherichia coli K12 JM109 (plasmid pOW382)
Protocol: The kinetics of the native enzyme and recombinant enzyme were determined under the optimal reaction conditions for the enzyme, i.e., at pH 7.0 in 50 mM HEPES buffer at 36° C.

native synthase = target: T4, native synthase (Streptomyces clavuligerus, UniProt P18548); experiment: Kinetics of native synthase, partially purified (Mono Q eluate); conditions: native partially purified enzyme; Tris-HCl buffer, 36° C.
T4 construct: native synthase, evaluated with the partially purified enzyme; endogenous in cells; host or cells: Streptomyces clavuligerus cells, crude extract, three-step purification (Mono Q eluate)

purified synthase [6] = target: T2, purified synthase; experiment: Stoichiometric analysis of conversion of penicillin N to DAOC; conditions: over 60 min of the reaction
Protocol: In the conversion of penicillin N to DAOC by the purified synthase provided herein, the molar ratio for DAOC formation/penicillin N disappearance over 60 min of the reaction remained in the range of 0.90-0.98 as shown in FIG. 5. The conversion of penicillin N to DAOC was 94% complete under the reaction conditions.

[7] = metal ions: order Zn2+ > Co2+ > Ni2+
[8] = additive 0.1 mM, 0.06 mN FeSO4, 0.1 mM DTT, 1 min incubation with inhibitor before penicillin N
[9] = additive 1.0 mM, 0.06 mN FeSO4, 0.1 mM DTT, 1 min incubation with inhibitor before penicillin N

T2 sequence (P18548 whole entry): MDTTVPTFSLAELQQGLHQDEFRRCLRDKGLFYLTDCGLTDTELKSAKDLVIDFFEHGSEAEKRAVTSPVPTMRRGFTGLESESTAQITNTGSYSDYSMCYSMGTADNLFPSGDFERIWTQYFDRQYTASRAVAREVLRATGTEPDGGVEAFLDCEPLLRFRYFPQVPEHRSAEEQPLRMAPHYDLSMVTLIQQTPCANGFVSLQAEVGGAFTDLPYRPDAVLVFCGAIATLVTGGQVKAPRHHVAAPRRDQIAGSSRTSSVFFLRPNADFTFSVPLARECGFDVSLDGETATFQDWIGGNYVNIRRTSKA
T1 sequence (P18548 whole entry): as above
T4 sequence (P18548 whole entry): as above
T3 sequence (P18548 whole entry): as above

restoration of synthase activity after DTNB inactivation (DAOC synthase [1]; 2 mM DTT added, 30 min): fully restored | stimulation of DAOC synthase activity (DAOC synthase [2]): stimulated
SMILES: O[C@H](CS)[C@H](O)CS (racemic) [DTT, dithiothreitol]

SMILES: C=C1CS[C@@H]2[C@H](NC(=O)CCCC(N)C(=O)O)C(=O)N2C1C(=O)O (stereo partly drawn) [3-exomethylenecephalosporin C, 7β-(α-aminoadipamido)-3-exomethylenecepham-4-carboxylic acid]
inhibition of DAOC synthase activity (in words) (DAOC synthase [1]; [7]): strong inhibitor | conversion to DAC by the purified synthase (purified synthase [3]): possesses the ability to convert 3-exomethylenecephalosporin C to DAC

SMILES: CC1(C)S[C@@H]2[C@H](N)C(=O)N2[C@H]1C(=O)O [6-aminopenicillanic acid]
synthase activity with the compound as substrate (DAOC synthase [4]): No synthase activity was observed

SMILES: Nc1ncnc2c1ncn2[C@@H]1O[C@H](COP(=O)(O)OP(=O)(O)OP(=O)(O)O)[C@@H](O)[C@H]1O [ATP, adenosine triphosphate]
stimulation of DAOC synthase activity (DAOC synthase [2]): No detectable stimulation

SMILES: CC1=C(C(=O)O)N2C(=O)[C@@H](NC(=O)CCC[C@@H](N)C(=O)O)[C@H]2SC1 [DAOC, deacetoxycephalosporin C]
conversion to DAC by the purified synthase (purified synthase [3]): lacks the hydroxylase activity for converting DAOC to DAC

SMILES: O=C(O)c1cc(SSc2ccc([N+](=O)[O-])c(C(=O)O)c2)ccc1[N+](=O)[O-] [DTNB, 5,5'-dithiobis-2-nitrobenzoic acid]
inactivation of the enzyme (DAOC synthase [1]; 0.2 mM DTNB, 0.5 min, 4° C.): complete inactivation | Relative Activity (%) (DAOC synthase [1]; [8]): 70% | Relative Activity (%) (DAOC synthase [1]; [9]): 0% | inhibition of DAOC synthase activity (in words) (DAOC synthase [1]; [7]): highly susceptible to inhibition

SMILES: O=C(O)CN(CCN(CC(=O)O)CC(=O)O)CC(=O)O [EDTA, ethylenediamine tetraacetic acid]
inhibition of DAOC synthase activity (in words) (DAOC synthase [1]): highly sensitive to inhibition

replacement of ferrous ion for expression of enzyme activity (DAOC synthase [2]; in the presence of DTT and ascorbate, enzyme slightly less active): can substitute for ferrous ion
SMILES: [Fe+3] [Ferric ion]

SMILES: O=C(O)CI [Iodoacetic acid, iodoacetic acid]
Relative Activity (%) (DAOC synthase [1]): 100% and 65% | inhibition of DAOC synthase activity (in words) (DAOC synthase [1]): slightly inhibited

SMILES: CCN1C(=O)C=CC1=O [NEM, N-ethylmaleimide]
Relative Activity (%) (DAOC synthase [1]; [8]): 55% | Relative Activity (%) (DAOC synthase [1]; [9]): 0% | inhibition of DAOC synthase activity (in words) (DAOC synthase [1]; [7]): highly susceptible to inhibition

synthase activity with the compound as substrate (DAOC synthase [4]): No synthase activity was observed
SMILES: CC1(C)S[C@@H]2[C@H](NC(=O)[C@H](N)c3ccccc3)C(=O)N2[C@H]1C(=O)O [ampicillin]

SMILES: [Ca] [calcium]
replacement of ferrous ion for expression of enzyme activity (DAOC synthase [2]): could not be replaced

inhibition of DAOC synthase activity (in words) (DAOC synthase [1]; [7]): inhibited | replacement of ferrous ion for expression of enzyme activity (DAOC synthase [2]): could not be replaced
SMILES: [Co+2] [cobaltous]

replacement of ferrous ion for expression of enzyme activity (DAOC synthase [2]): could not be replaced
SMILES: [Cu+] [cuprous]

SMILES: [Fe+2] [ferrous ion]
requirement for expression of catalytic activity (DAOC synthase [2]): requires | Ka [5]: 8 µM | Ka (native synthase): 4 µM

SMILES: CC1(C)S[C@@H]2[C@H](NC(=O)CCC[C@H](N)C(=O)O)C(=O)N2[C@H]1C(=O)O [isopenicillin N]
synthase activity with the compound as substrate (DAOC synthase [4]): No synthase activity was observed

replacement of ferrous ion for expression of enzyme activity (DAOC synthase [2]): could not be replaced
SMILES: [Mg] [magnesium]

replacement of ferrous ion for expression of enzyme activity (DAOC synthase [2]): could not be replaced
SMILES: [Mn+2] [manganous]

SMILES: [Ni+2] [nickel]
inhibition of DAOC synthase activity (in words) (DAOC synthase [1]; [7]): inhibited | replacement of ferrous ion for expression of enzyme activity (DAOC synthase [2]): could not be replaced

Relative Activity (%) (DAOC synthase [1]; additive 0.02 mM, 0.06 mN FeSO4, 0.1 mM DTT, 1 min incubation with inhibitor before penicillin N): 63% | Relative Activity (%) (DAOC synthase [1]; additive 0.2 mM, 0.06 mN FeSO4, 0.1 mM DTT, 1 min incubation with inhibitor before penicillin N): 0% | inhibition of DAOC synthase activity (in words) (DAOC synthase [1]; [7]): highly sensitive to inhibition
SMILES: c1cnc2c(c1)ccc1cccnc12 [o-Phenanthroline, 1,10-phenanthroline]

SMILES: O=O [oxygen]
requirement for expression of catalytic activity (DAOC synthase [2]): requires

SMILES: O=C(O)c1cc[c]([Hg+])cc1.[OH-] [p-HMB, p-hydroxymercuribenzoate]
Relative Activity (%) (DAOC synthase [1]; [8]): 0% | Relative Activity (%) (DAOC synthase [1]; [9]): 0% | inhibition of DAOC synthase activity (in words) (DAOC synthase [1]; [7]): highly susceptible to inhibition

SMILES: CC1(C)S[C@@H]2[C@H](NC(=O)Cc3ccccc3)C(=O)N2[C@H]1C(=O)O [penicillin G]
synthase activity with the compound as substrate (DAOC synthase [4]): No synthase activity was observed

SMILES: CC1(C)S[C@@H]2[C@H](NC(=O)CCC[C@@H](N)C(=O)O)C(=O)N2[C@H]1C(=O)O [penicillin N]
molar ratio for DAOC formation/penicillin N disappearance (purified synthase [6]): 0.90-0.98

SMILES: CC1(C)S[C@@H]2[C@H](NC(=O)COc3ccccc3)C(=O)N2[C@H]1C(=O)O [penicillin V]
synthase activity with the compound as substrate (DAOC synthase [4]): No synthase activity was observed

replacement of ferrous ion for expression of enzyme activity (DAOC synthase [2]): could not be replaced
SMILES: [K+] [potassium]

replacement of ferrous ion for expression of enzyme activity (DAOC synthase [2]): could not be replaced
SMILES: [Na+] [sodium]

inhibition of DAOC synthase activity (in words) (DAOC synthase [1]; [7]): inhibited | replacement of ferrous ion for expression of enzyme activity (DAOC synthase [2]): could not be replaced
SMILES: [Zn+2] [zinc]
